From US12343335B2, “Pharmaceutical composition for treating multiple sclerosis on basis of AMPK inhibitory function and zinc homeostasis control function” (ZINCURE CORP., priority 2019, dated 2025) come the findings set out here.

For this data set, the system named is spinal cord of EAE mice. Briefly: Immunohistochemistry of spinal cord of EAE mice (CD4, CD8, CD20, IgG leakage). Format: in vivo, C57BL/6 female mice. The method, then: The present inventors induced experimental autoimmune encephalomyelitis (EAE), an animal model of multiple sclerosis, by subcutaneously injecting Myelin oligodendrocyte glycoprotein 35-55 (MOG35-55) peptide antigen into C57BL/6 female mice (FIG. 1A). For this, MOG35-55 (Ana spec, USA) and Complete freund's adjuvant (CFA) were first prepared, and MOG35-55 (2 mg/ml) was dissolved in Phosphate buffered saline (lx PBS, Sigma), and then the 25 ml of CFA was prepared by dispending 25 ml of incomplete freund's adjuvant (IFA. Sigma) in a 50 ml conical tube. Then, in a fume hood, Mycobacterium tuberculosis H37Ra (100 mg; Difco, USA) was added to the IFA in order to prepare CFA and store it in the refrigerator after vortexing before use. Thereafter, MOG35-55 and CFA containing Mycobacterium tuberculosis H37Ra was mixed in the same amount and injected into both flanks of the mice. And then Pertussis toxin (4 μg/ml, List Biological Laboratories, USA) was injected intraperitoneally on the day of immunization and on the second day after immunization. After the immunization, the mice's body weight and clinical symptoms were measured every day, and the degree of EAE progression was evaluated based on specific clinical symptoms. More details on this are provided below.
On the 21st day after EAE induction, the present inventors anesthetized mice with urethane and then perfused 4% paraformaldehyde into the heart to fix the spinal cord. And then, an immunohistochemistry was performed using anti-CD4, anti-CD8, and anti-CD20 antibodies […]. Cryosections were reacted with 3% hydrogen peroxide at room temperature for 15 minutes to remove endogenous peroxidase, and then primary antibodies, rat anti-CD4 (1:50, BD Bioscience, CA, USA), anti-CD8 (1:50, BD Bioscience) and goat anti-CD20 (1:50, SantaCruz Biotechnology, USA) antibodies were reacted for 15 hours at 4° C. Thereafter, biotinylated anti-rat IgG or anti-goat IgG (1:250, Vector Laboratories, USA) was reacted at room temperature for 2 hours. […]

Molecules are shown by their SMILES.

As to `O=C1N=C(Nc2cccc(O)c2)S/C1=C\c1c[nH]c2ccccc12` [1H10, (Z)-5-((1H-indol-3-yl)methylene)-2-((3-hydroxyphenyl)amino)thiazol-4(5H)-one], the “IgG staining due to damage of BBB” value (Sham group (no EAE induction), white or gray matter) is listed as “not detected”. For the setting “spinal cord white matter, after EAE induction, vs vehicle”, the “infiltration of the T and B cells (CD4, CD8, CD20)” value was “significantly inhibited”. Moreover, the “IgG infiltration (BBB damage)” value (white and gray matter, 3 weeks after MOG injection) is reported as “significantly reduced”.
